Assay results reported in patent US5407660A, “Diagnostic liposomal compositions for enhancing NMR imaging” (Mallinckrodt Medical, Inc., priority 1993, dated 1995).
“Also recorded” adds a separate entry of the source. Read-outs that look alike come from different tables or passages of the source.

What was measured:
[1] = format: in vivo, marmosets; settings: for T1 (mean), Blood: 0.3 ml/kg, pre-contrast 507
[2] = Acute intravenous toxicity in mice (Example 4); settings: for Cumulative Mortalities/Number Dosed, Female / Cumulative Mortalities/Number Dosed, Male: 7 days; for LD50: 7-day observation
Procedure: (§1) In addition, the cardiotoxic effects of single bolus intracoronary arterial injections of 4, 8, 16 or 32 mg MnCl2 were evaluated in the isolated perfused rabbit heart (IPRH).
(§2) The aqueous vehicle for the suspension of negatively charged liposomes consisted of 0.9% NaCl buffered with 0.003 M sodium phosphate, pH 7.4. The lipid concentration was 50 μmol/ml.
A total of 60 mice, 30 males (body weight range of 20-33.5 g) and 30 females (body weight range of 19.1-29.7 g) were used. Fifty of the mice were Swiss ICR, CD-1, obtained from Charles River and ten were Swiss CF-1 obtained from Sasco (Omaha, Neb.).
The four test substances were administered via the lateral tail vein of the mouse at a rate of 1 ml/min with the following doses given.

[3] = system: isolated perfused rabbit heart; assay: Intracoronary cardiotoxicity in the isolated perfused rabbit heart (IPRH)
Procedure: as §1, §2
A total of 8 female, New Zealand albino rabbits, with body weights ranging from 1.97-2.96 kg were used in the study.
Rabbits were sacrificed by cervical dislocation, the hearts excised and coronary perfusion was performed at constant pressure via the aortic root using an oxygenated physiological salt solution (Chenoweth's solution) heated to 37° C. A 0.8%, w/v, solution of MnCl2 was heated to 37° C. and intracoronary bolus injections of 0.5, 1.0, 2.0 and 4.0 ml were made in each of the six hearts via a sidearm of the perfusion apparatus. A period of time sufficient to allow the heart to stabilize was allowed between injections. The heart rate (HR), contractile force (CF) and electrocardiogram (ECG) were recorded on a Grass Model 7 polygraph. The maximal percentage changes from pre-injection control values for HR and CF were determined during intervals of […] and 15-30 seconds after injection. The percentage changes from control HR and CF were also recorded at 1, 2, 3 and 4 minutes after injection. The ECG was examined for arrhythmias. When ventricular fibrillation (VF) occurred, no calculations were performed with CF and HR data from that injection.

[4] = Biodistribution of 54MnNa2 EDTA and 54Mn-L in rats (Example 5); format: in vivo, Sprague-Dawley rats
Text: A total of forty Sprague-Dawley rats (20 male, 217-295 g; 20 female, 151-208 g; Charles River) were used. Drinking water was provided ad libitum. The animals, 2 males and 2 females per group, were selected randomly from their cages and were identified with indelible ink numbers at tail bases before test substance administration.
Rats were divided into 10 groups consisting of 2 male and 2 female rats per group. […] Immediately after dosing, rats were housed in individual metabolism cages. Ground Purina Laboratory Chow and water were supplied ad libitum to animals sacrificed at 24 and 48 hr after treatment. Rats from both ^54 NmNa2 EDTA and ^54 Mn-L treatment groups were sacrificed by cervical dislocation at 0.5, 2, 4, 24 and 48 hr after treatment, and the following samples were obtained: injection site, blood, liver, lung, spleen, heart, kidneys, salivary gland (submaxillary), brain, bone with marrow, muscle and fat. Urine samples were obtained from animals sacrificed at all intervals of 2 hr or more after injection and fecal samples were obtained from animals sacrificed at 24 and 48 hr after treatment. […] The entire organ weights were determined for the remaining tissues.
Levels of radioactivity in the biological specimens and aliquots of the injected test substances were determined using a gamma scintillation spectrometer (Model 1085, Nuclear Chicago Corp., Des Plaines, Ill.). Results were calculated on a percent dose/organ (or fluid) and a percent dose/g (or ml) basis using an HP-85 desk top computer (Hewlett Packard, Fort Collins, Colo.).
Kinetic data for the elimination of radioactivity from liver, spleen, kidneys, heart and bone with marrow were curve fitted by the peeling and least-square methods, to mono or bi-exponential equations: [formula]
The half-life (t 1/2) for each elimination phase was calculated as 0.693/Ki. The square of the correlation coefficient (r^2) for each elimination phase was calculated as an indication of variability.

[5] = 32 mg dose, 0-15 s, only 1 heart, all others had VF

Compound: O.O.O=C([O-])CN(CC(=O)[O-])[C@@H]1CCCC[C@H]1N(CC(=O)[O-])CC(=O)[O-].[Mn+2].[Na+].[Na+] (relative stereo) [EXAMPLE 1 (E), disodium (trans-1,2-diaminocyclohexane-N,N,N',N'-tetraacetate) manganese dihydrate]
- Blood (5 min) and liver T1 values (in words) ([1]; 0.3 ml/kg i.v.): substantially reduced
- several other tissue T1's (in words) ([1]; 0.3 ml/kg i.v.): slightly reduced
- T1 (mean), Blood ([1]; 5 minute): 375
- T1 (mean), Blood ([1]; 10 minute): 454
- Tissue T1 (mean), Bladder ([1]; 15 min after 0.3 ml/kg): 217
- Tissue T1 (mean), Fat ([1]; 15 min after 0.3 ml/kg): 68
- Tissue T1 (mean), Large Intestine ([1]; 15 min after 0.3 ml/kg): 185
- Tissue T1 (mean), Liver ([1]; 15 min after 0.3 ml/kg): 32
- Tissue T1 (mean), Lung ([1]; 15 min after 0.3 ml/kg): 280
- Tissue T1 (mean), Pancreas ([1]; 15 min after 0.3 ml/kg): 103
- Tissue T1 (mean), Renal Cortex ([1]; 15 min after 0.3 ml/kg): 152
- Tissue T1 (mean), Renal Medulla ([1]; 15 min after 0.3 ml/kg): 209
- Tissue T1 (mean), Skeletal Muscle ([1]; 15 min after 0.3 ml/kg): 206
- Tissue T1 (mean), Small Intestine ([1]; 15 min after 0.3 ml/kg): 107
- Tissue T1 (mean), Spleen ([1]; 15 min after 0.3 ml/kg): 221
- Tissue T1 (mean), Stomach ([1]; 15 min after 0.3 ml/kg): 145
- Tissue T1 (mean), Heart ([1]; 15 min after 0.3 ml/kg (0.118 mmol Mn(II)/kg)): 183
- T1 (mean), Blood ([1]; 15 minute): 511
- Cardiovascular effects ([1]; in vivo, iv): minimal

Compound: [Cl][Mn][Cl] [MnCl2, manganese (II) chloride]
- Cumulative Mortalities/Number Dosed, Female ([2]; 25 mg/kg i.v.): 1/5
- Cumulative Mortalities/Number Dosed, Male ([2]; 25 mg/kg i.v.): 3/5
- Cumulative Mortalities/Number Dosed, Female ([2]; 31.25 mg/kg i.v.): 4/5
- Cumulative Mortalities/Number Dosed, Male ([2]; 31.25 mg/kg i.v.): 2/5
- Cumulative Mortalities/Number Dosed, Female ([2]; 37.5 mg/kg i.v.): 4/5
- Cumulative Mortalities/Number Dosed, Male ([2]; 37.5 mg/kg i.v.): 4/5
- time of death after dosing was completed ([2]; all deaths with the exception of one (4 days)): one
- acute intravenous toxicity (in words) ([2]; intravenous, mice): high degree of acute toxicity
- LD50 ([2]; intravenous, mice, 10080 min): 28 mg/kg
- LD50 ([2]; intravenous, mice, listed as 1, 10080 min): 28.0 mg/kg
- LD50 as Mn(II) ([2]; intravenous, mice, 10080 min): 0.22 mmol/kg of Mn(II)
- cause of death ([2]; intravenous, mice, thoracotomy of one mouse): cardiac arrest
- Incidence of Ventricular Fibrillation (VF) ([3]; 4 mg dose): 0/6
- Mean % Change in Contractile Force (CF) ([3]; 4 mg dose, 0-15 s): -5%
- Mean % Change in Heart Rate (HR) ([3]; 4 mg dose, 0-15 s): -2%
- Mean % Change in Contractile Force (CF) ([3]; 4 mg dose, 15-30 s): -28%
- Mean % Change in Heart Rate (HR) ([3]; 4 mg dose, 15-30 s): -2%
- Mean % Change in Contractile Force (CF) ([3]; 4 mg dose, 1 min): -12%
- Mean % Change in Contractile Force (CF) ([3]; 4 mg dose, 2 min): +5%
- Mean % Change in Heart Rate (HR) ([3]; 4 mg dose, 2 min): -2%
- Incidence of Ventricular Fibrillation (VF) ([3]; 8 mg dose): 0/6
- Mean % Change in Contractile Force (CF) ([3]; 8 mg dose, 0-15 s): -74%
- Mean % Change in Heart Rate (HR) ([3]; 8 mg dose, 0-15 s): -8%
- Mean % Change in Contractile Force (CF) ([3]; 8 mg dose, 15-30 s): -38%
- Mean % Change in Heart Rate (HR) ([3]; 8 mg dose, 15-30 s): -7%
- Mean % Change in Contractile Force (CF) ([3]; 8 mg dose, 1 min): -17%
- Mean % Change in Heart Rate (HR) ([3]; 8 mg dose, 1 min): -7%
- Mean % Change in Contractile Force (CF) ([3]; 8 mg dose, 2 min): +2%
- Mean % Change in Heart Rate (HR) ([3]; 8 mg dose, 2 min): -6%
- Incidence of Ventricular Fibrillation (VF) ([3]; 16 mg dose): 2/6
- Mean % Change in Contractile Force (CF) ([3]; 16 mg dose, 0-15 s): -92%
- Mean % Change in Heart Rate (HR) ([3]; 16 mg dose, 0-15 s): -31%
- Mean % Change in Contractile Force (CF) ([3]; 16 mg dose, 15-30 s): -61%
- Mean % Change in Heart Rate (HR) ([3]; 16 mg dose, 15-30 s): -14%
- Mean % Change in Contractile Force (CF) ([3]; 16 mg dose, 1 min): -37%
- Mean % Change in Heart Rate (HR) ([3]; 16 mg dose, 1 min): -14%
- Mean % Change in Contractile Force (CF) ([3]; 16 mg dose, 2 min): -1%
- Mean % Change in Heart Rate (HR) ([3]; 16 mg dose, 2 min): -11%
- premature ventricular contractions in hearts which did not fibrillate ([3]; 16 mg dose, during or immediately after injection): two of the four hearts
- Incidence of Ventricular Fibrillation (VF) ([3]; 32 mg dose): 5/6
- conduction block in the single heart which failed to fibrillate ([3]; 32 mg dose): complete A-V conduction block with ventricular standstill
- Mean % Change in Contractile Force (CF) [3, 5]: -100%
- Mean % Change in Heart Rate (HR) [3, 5]: -100%
- Mean % Change in Contractile Force (CF) ([3]; 32 mg dose, 15-30 s): -64%
- Mean % Change in Heart Rate (HR) ([3]; 32 mg dose, 15-30 s): -17%
- Mean % Change in Contractile Force (CF) ([3]; 32 mg dose, 1 min): -33%
- Mean % Change in Heart Rate (HR) ([3]; 32 mg dose, 1 min): -17%
- Mean % Change in Contractile Force (CF) ([3]; 32 mg dose, 2 min): +2%
- Mean % Change in Heart Rate (HR) ([3]; 32 mg dose, 2 min): -14%
- arrhythmias (in words) ([3]; 4-32 mg): dose-related incidence of arrhythmias; also recorded: conduction delays and ventricular arrhythmias
- effect on CF and HR (in words) ([3]; 4-32 mg, maximal within 0-15 seconds): Dose-related decreases in CF and HR; also recorded: dose-related depression of contractility and heart rate
- PR and QRS intervals ([3]; ECG, 4-32 mg): dose-related increases in PR and QRS intervals

Compound: O=C([O-])CN(CCN(CC(=O)[O-])CC(=O)[O-])CC(=O)[O-].[54Mn+2].[Na+].[Na+] [^54 MnNa2 EDTA, disodium (ethylenediaminetetraacetato) manganese (II)]
- distribution, percent dose/organ (in words) ([4]; 0.5-48 hr): distributed primarily to the liver, bone with marrow, muscle and kidneys
- bone and marrow half-life ([4]; bone and marrow): > 100 h
- heart half-life, monophasic elimination ([4]; heart): approximately 8 hr
- blood disappearance/clearance (in words) ([4]; intravenous): rapidly cleared from the blood
- share associated with rapid first phase renal elimination ([4]; kidney): Approximately 81%
- renal clearance t 1/2, initial rapid phase ([4]; kidney, biphasic): < 1 h
- renal clearance t 1/2, secondary slow phase ([4]; kidney, biphasic): > 17 h
- share associated with rapid first phase hepatic elimination ([4]; liver): Approximately 92%
- hepatic clearance t 1/2, initial rapid phase ([4]; liver, biphasic): < 1 h
- hepatic clearance t 1/2, secondary slow phase ([4]; liver, biphasic): > 17 h
- spleen half-life, monophasic elimination ([4]; spleen): ~ 2 hr
- dose eliminated in the urine ([4]; within 2 hr after treatment): > 50%
